{
  "source": "paper PMC10004634",
  "about": "(PLOS ONE, 2023)",
  "key": {"PKNB(M.tuberculosis)": {"target": "PKNB(M.tuberculosis) (Mycobacterium tuberculosis, UniProt P9WI81)", "sequence (P9WI81 whole entry, looked up)": "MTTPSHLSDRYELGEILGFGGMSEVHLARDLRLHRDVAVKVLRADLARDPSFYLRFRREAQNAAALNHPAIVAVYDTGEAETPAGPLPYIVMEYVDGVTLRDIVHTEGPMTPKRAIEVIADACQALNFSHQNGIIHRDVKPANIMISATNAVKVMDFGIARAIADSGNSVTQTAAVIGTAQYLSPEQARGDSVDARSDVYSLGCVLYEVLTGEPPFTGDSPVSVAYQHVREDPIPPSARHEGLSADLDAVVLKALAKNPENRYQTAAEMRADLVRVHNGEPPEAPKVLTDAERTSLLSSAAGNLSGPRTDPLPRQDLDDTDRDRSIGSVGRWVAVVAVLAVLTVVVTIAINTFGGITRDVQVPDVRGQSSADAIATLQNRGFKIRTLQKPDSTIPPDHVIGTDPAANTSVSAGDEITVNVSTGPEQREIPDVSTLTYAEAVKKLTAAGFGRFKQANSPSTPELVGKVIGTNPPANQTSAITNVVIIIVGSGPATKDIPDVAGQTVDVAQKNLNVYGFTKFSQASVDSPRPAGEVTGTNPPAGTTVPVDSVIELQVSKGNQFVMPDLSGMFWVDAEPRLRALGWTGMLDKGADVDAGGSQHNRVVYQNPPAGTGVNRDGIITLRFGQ", "assay": "biochemical", "conditions": "read-out: Percent control / Ibrutinib"}, "B-cells in human PBMC": {"tested_on": "B-cells in human PBMC", "assay": "PBMC stimulation assay, anti-IgM-stimulated B-cell activation (CD69)", "assay_type": "cell-based", "conditions": "anti-IgM 1 μg/mL, 22 h, read-out: IC50 of CD69 inhibition, anti-IgM-stimulated B-cell activation", "description": "(§1) After culturing, the stimulated cells were stained with fluorescently labeled CD3, CD20, and CD69 antibodies. B-cells (identified by gating CD20-positive and CD3-negative cells) and T-cells (identified by gating CD3-positive and CD20-negative cells) were analyzed by flow cytometry to monitor the expression of CD69. […] GraphPad Prism version 5.04 (GraphPad Software, Inc., San Diego, CA, USA) and its base settings were used for initial values and convergence conditions."}, "T-cells in human PBMC": {"tested_on": "T-cells in human PBMC", "assay": "PBMC stimulation assay, anti-CD3/CD28-stimulated T-cell activation (CD69)", "assay_type": "cell-based", "conditions": "16 h, up to the highest concentration of 10 μM", "description": "as §1"}, "[1]": {"tested_on": "BT system (B cells, peripheral blood mononuclear cells)", "assay": "BioMAP Diversity PLUS profiling, BT system", "assay_type": "cell-based, human", "conditions": "120, 370, 1100, 3300 nM", "description": "(§2) In brief, cultures with one or more primary cell types from healthy human donors were treated with sets of stimulators specific to the cell subsets, and the optimized biomarker readouts for each system were measured by ELISA and other techniques, as listed in S1 Table. The assays included positive and negative controls as well as vehicle control. Results are presented as the log-transformed ratio of biomarker readouts for tirabrutinib-treated samples to vehicle controls."}, "[2]": {"tested_on": "other BioMAP systems such as the T-cell and fibroblast activation systems", "assay": "BioMAP Diversity PLUS profiling, other evaluation systems", "assay_type": "cell-based, human", "conditions": "120, 370, 1100, 3300 nM", "description": "as §2"}, "TMD8 cells": {"tested_on": "TMD8 cells", "assay": "Cell viability assay (CellTiter-Glo)", "assay_type": "cell-based", "conditions": "Homo sapiens, 72 h", "description": "(§3) After incubation for 72 h at 37°C and 5% CO2/95% air, relative light units (RLU) were measured with the CellTiter-Glo Luminescent Cell Viability Assay (Promega, Madison, WI, USA). […] GraphPad Prism (version 5.01J or 5.04; GraphPad Software, Inc., San Diego, CA, USA) and its base settings were used for initial values and convergence conditions."}, "U-2932 cells": {"tested_on": "U-2932 cells", "assay": "Cell viability assay (CellTiter-Glo)", "assay_type": "cell-based", "conditions": "Homo sapiens, U2932, 72 h", "description": "as §3"}, "CSK": {"target": "CSK (Homo sapiens, UniProt P41240)", "sequence (P41240 whole entry)": "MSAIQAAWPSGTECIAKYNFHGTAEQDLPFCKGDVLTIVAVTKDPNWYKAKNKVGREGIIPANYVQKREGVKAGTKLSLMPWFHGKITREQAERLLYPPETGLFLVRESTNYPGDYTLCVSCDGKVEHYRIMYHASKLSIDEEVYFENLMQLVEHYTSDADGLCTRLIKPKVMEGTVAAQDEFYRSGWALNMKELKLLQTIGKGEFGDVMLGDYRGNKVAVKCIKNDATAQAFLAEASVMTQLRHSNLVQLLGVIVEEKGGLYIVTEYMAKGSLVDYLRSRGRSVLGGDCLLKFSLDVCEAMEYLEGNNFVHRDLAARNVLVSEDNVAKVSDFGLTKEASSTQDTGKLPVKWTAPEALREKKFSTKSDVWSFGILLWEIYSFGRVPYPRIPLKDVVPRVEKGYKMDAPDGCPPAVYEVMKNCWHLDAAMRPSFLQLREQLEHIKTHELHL", "assay": "KinAffinity cell-based binding assay using PBMC", "parameters": "purchased Carna Biosciences Inc"}, "RIPK2": {"target": "RIPK2 (Homo sapiens, UniProt O43353)", "sequence (O43353 whole entry)": "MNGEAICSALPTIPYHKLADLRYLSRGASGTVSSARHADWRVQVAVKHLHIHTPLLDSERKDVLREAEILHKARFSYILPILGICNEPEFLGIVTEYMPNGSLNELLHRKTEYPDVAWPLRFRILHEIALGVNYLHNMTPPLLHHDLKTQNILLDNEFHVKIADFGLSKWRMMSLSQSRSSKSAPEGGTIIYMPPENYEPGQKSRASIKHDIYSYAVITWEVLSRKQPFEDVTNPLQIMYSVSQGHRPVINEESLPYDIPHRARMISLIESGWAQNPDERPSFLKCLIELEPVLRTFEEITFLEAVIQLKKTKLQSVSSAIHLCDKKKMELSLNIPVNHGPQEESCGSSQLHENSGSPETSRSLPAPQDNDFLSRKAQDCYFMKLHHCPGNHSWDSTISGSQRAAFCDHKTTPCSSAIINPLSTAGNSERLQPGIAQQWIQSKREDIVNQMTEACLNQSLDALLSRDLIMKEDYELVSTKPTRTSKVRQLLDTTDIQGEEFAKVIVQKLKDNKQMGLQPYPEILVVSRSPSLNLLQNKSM", "assay": "KinAffinity cell-based binding assay using PBMC", "parameters": "in a cell-based assay using PBMC (Kd); host or cells: PBMC"}, "PFPK5(P.falciparum)": {"target": "T1, PFPK5(P.falciparum) (Plasmodium falciparum, UniProt P61075)", "T1 construct": "gene MAL13P1.279", "T1 sequence (P61075 whole entry)": "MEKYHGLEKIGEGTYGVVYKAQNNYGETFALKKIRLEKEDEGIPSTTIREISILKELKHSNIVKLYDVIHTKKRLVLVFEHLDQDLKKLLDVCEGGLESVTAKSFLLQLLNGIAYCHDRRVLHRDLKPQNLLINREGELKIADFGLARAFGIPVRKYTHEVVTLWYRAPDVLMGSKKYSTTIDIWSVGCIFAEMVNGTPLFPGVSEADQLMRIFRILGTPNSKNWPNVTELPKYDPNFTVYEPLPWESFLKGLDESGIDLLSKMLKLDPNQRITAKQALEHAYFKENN", "assay": "biochemical", "conditions": "read-out: Percent control / Zanubrutinib"}, "TEC": {"target": "T2, TEC (Homo sapiens, UniProt P42680)", "T2 sequence (P42680 1-631)": "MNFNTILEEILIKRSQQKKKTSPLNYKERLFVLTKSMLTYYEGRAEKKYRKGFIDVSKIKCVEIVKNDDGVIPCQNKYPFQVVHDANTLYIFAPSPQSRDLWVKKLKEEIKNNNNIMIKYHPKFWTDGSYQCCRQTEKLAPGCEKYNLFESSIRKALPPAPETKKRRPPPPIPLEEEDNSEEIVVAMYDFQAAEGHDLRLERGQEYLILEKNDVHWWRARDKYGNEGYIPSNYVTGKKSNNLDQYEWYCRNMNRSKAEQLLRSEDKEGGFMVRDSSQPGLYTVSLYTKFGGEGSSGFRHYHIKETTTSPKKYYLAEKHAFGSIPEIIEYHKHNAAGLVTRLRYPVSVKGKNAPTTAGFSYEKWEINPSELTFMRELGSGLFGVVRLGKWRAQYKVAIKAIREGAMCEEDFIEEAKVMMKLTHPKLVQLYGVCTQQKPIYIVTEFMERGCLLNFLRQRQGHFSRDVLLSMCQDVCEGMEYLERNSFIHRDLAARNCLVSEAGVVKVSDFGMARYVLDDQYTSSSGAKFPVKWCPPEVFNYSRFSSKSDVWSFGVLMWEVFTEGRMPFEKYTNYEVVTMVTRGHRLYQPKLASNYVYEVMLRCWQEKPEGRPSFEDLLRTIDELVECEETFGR", "assay": "LanthaScreen Eu kinase binding assay", "parameters": "purchased Thermo Fisher Scientific (Invitrogen LanthaScreen service)", "conditions": "60 min preincubation", "description": "In all the assays, each test compound was preincubated with peptide/kinase mixture or kinase/antibody mixture for 60 min at room temperature before adding the ATP solution or AlexaFluor labeled Tracer to initiate the 60-min incubation of the reactants."}, "[3]": {"conditions": "at 100 nM, read-out: maximum growth inhibition rate"}, "[4]": {"conditions": "read-out: IC50 of growth inhibition"}},
  "data": [
    {"molecule": "C=CC(=O)N1CCC[C@@H](n2nc(-c3ccc(Oc4ccccc4)cc3)c3c(N)ncnc32)C1", "note": "[Ibrutinib]", "values": [
      {"measurement": "remaining activity at 0.3 µM", "setting": "PKNB(M.tuberculosis)", "value": 93, "unit": "%"}
    ]},
    {"molecule": "CC#CC(=O)N1CC[C@@H](n2c(=O)n(-c3ccc(Oc4ccccc4)cc3)c3c(N)ncnc32)C1", "note": "[Tirabrutinib]", "values": [
      {"measurement": "IC50", "setting": "B-cells in human PBMC", "value": 13.8, "unit": "nM"},
      {"measurement": "inhibition of anti-CD3/CD28-stimulated T-cell activation (CD69)", "setting": "T-cells in human PBMC", "value": "did not inhibit"},
      {"measurement": "effect on the BT system (B-cell growth, production of IgG, IL-6, IL-17A, TNFα)", "setting": "[1]", "value": "concentration-dependent inhibitory effect"},
      {"measurement": "effect in other BioMAP evaluation systems", "setting": "[2]", "value": "no significant effect"},
      {"measurement": "inhibition at 0.1 µM", "setting": "TMD8 cells; [3]", "value": 98.6, "unit": "%"},
      {"measurement": "IC50", "setting": "TMD8 cells; [4]", "value": 3.59, "unit": "nM"},
      {"measurement": "inhibition at 0.1 µM", "setting": "U-2932 cells; [3]", "value": 30.8, "unit": "%"},
      {"measurement": "IC50", "setting": "U-2932 cells; [4]", "value": 27.6, "unit": "nM"},
      {"measurement": "Kd", "setting": "CSK", "value": "> 3000", "unit": "nM"},
      {"measurement": "Kd", "setting": "RIPK2", "value": "> 3000", "unit": "nM"}
    ]},
    {"molecule": "C=CC(=O)N1CCC([C@@H]2CCNc3c(C(N)=O)c(-c4ccc(Oc5ccccc5)cc4)nn32)CC1", "note": "[Zanubrutinib]", "values": [
      {"measurement": "remaining activity at 0.3 µM", "setting": "PFPK5(P.falciparum)", "value": 100, "unit": "%"},
      {"measurement": "IC50", "setting": "TEC", "value": 4.47, "unit": "nM"}
    ]}
  ]
}
